Test results from patent US9353151B2, “HLA-binding peptide, and DNA fragment and recombinant vector coding for said HLA-binding peptide” (NEC Corporation, priority 2005, dated 2016).
No end group written: not given here.

Columns and labels:
[1] = tested on: HLA-A24 molecule (product of the HLA-A*2402 gene); assay: Experiment of binding peptide to HLA-A24 molecule (C1R-A24 cells, flow cytometry); design: species or system human; details: for Binding Experiment Data: -log Kd value (Kd in molar concentration), C1R-A24 cells
Description: The ability of a peptide to bind to an HLA-A24 molecule, which is a product of the HLA-A*2402 gene, was measured using C1R-A24 cells expressing the HLA-A24 molecule (cells prepared by Professor Masafumi Takiguchi, Kumamoto University being supplied with permission by Assistant Professor Masaki Yasukawa, Ehime University).
C1R-A24 cells were first exposed to acidic conditions at a pH of 3.3 for 30 seconds, thus dissociating and removing a light chain β2m, which is associated with HLA class I molecules in common, and an endogenous peptide originally bound to the HLA-A*2402 molecule. After neutralization, purified β2m was added to C1R-A24 cells, the obtained product was added to serial dilutions of a peptide, and incubated on ice for 4 hours. Staining was carried out using fluorescently labeled monoclonal antibody 17A12, which recognizes association (MHC-pep) of the three members, that is, HLA-A*2402 molecule, the peptide, and β2m, which had reassociated during the incubation.
Subsequently, the MHC-pep count per C1R-A24 cell (proportional to the strength of fluorescence of the above-mentioned fluorescent antibody) was quantitatively measured using an FACScan fluorescence-activated cell sorter (Becton Dickinson Biosciences). A binding dissociation constant Kd value between the HLA-A24 molecule and the peptide was calculated from the average strength of fluorescence per cell by a published method (Udaka et al., Immunogenetics, 51, 816-828, 2000).

[2] = target: HLA-A2 molecule (product of the HLA-A*0201 gene) (Homo sapiens, UniProt P04439, D140Y/D185E/D98H/E176V/E277Q/G131W/G231S/I119V/I121R/I166T/I218V/L300P/L318F/N151K/N90K/P208A/P217A/Q86G/Q94H/R138H/R169H/T345S); assay: Experiment of binding peptide to HLA-A2 molecule (JY cells, flow cytometry); details: -log Kd value (Kd in molar concentration)
Description: JY cells were first exposed to acidic conditions at a pH of 3.8 for 30 seconds, thus dissociating and removing a light chain β2m and an endogenous peptide, which were noncovalently associated with the HLA-A*0201 molecule. After neutralization, a reassociation experiment was carried out.
The above-mentioned JY cells and the purified β2m were added to stepped dilutions of peptide for which the binding ability would be measured, and incubation was carried out on ice for 4 hours. HLA-A*0201 molecules that had reassociated up to this point were stained using the associating type specific fluorescently-labeled monoclonal antibody BB7.2.
Subsequently, the amount of fluorescence per cell was measured using a flow cytometer and a dissociation constant Kd value in molar concentration was calculated by a published method (Udaka et al., Immunogenetics, 51, 816-828, 2000).

Row | Sequence | binding to a human HLA-A type molecule (in words) [1] | Binding Experiment Data ([1]; 9 amino acid peptides) | other results
1 | AFLSVKKQF [compound 2] | experimentally confirmed to bind | 7.7283 | –
2 | TLPPAWQPF [compound 23] | – | – | Kd ([2]; 9 amino acid peptides): 4.37 µM
3 | SSGCAFLSV [compound 21] | – | – | Kd ([2]; 9 amino acid peptides): 5.07 µM
4 | FLKDHRISTF [compound 44] | experimentally confirmed to bind | – | Binding Experiment Data ([1]; 10 amino acid peptides): 7.008
5 | FLKDHRISTF [compound 61] | – | – | Kd ([2]; 10 amino acid peptides): 2.95 µM
6 | TLPPAWQPF [compound 1] | experimentally confirmed to bind | 8.2648 | –
7 | GAPTLPPAW [compound 6] | experimentally confirmed to bind | 6.1588 | –
